# Experiments:
# Bone [1] = experiment: Biodistribution in bone of mouse B16F0 cells implanted C57BL/6J mouse assessed per gram of tissue at 0.4 to 5.5 MBq, iv after 1 hr by gamma counter; format: ADME, organism-based, Bone element; conditions: in vivo
# Bone [2] = experiment: Biodistribution in bone of mouse B16F0 cells implanted C57BL/6J mouse assessed per gram of tissue at 0.4 to 5.5 MBq, iv after 6 hrs by gamma counter; format: ADME, organism-based, Bone element; conditions: in vivo
# Lung [3] = experiment: Biodistribution in lung of mouse B16F0 cells implanted C57BL/6J mouse assessed per gram of tissue at 0.4 to 5.5 MBq, iv after 3 hrs by gamma counter; format: ADME, organism-based; conditions: in vivo
# [4] = Biodistribution in tumor of mouse B16F0 cells implanted C57BL/6J mouse assessed per gram of tissue at 0.4 to 5.5 MBq, iv after 3 hrs by gamma counter; format: ADME, organism-based, Neoplasm; conditions: in vivo
# Stomach [5] = experiment: Biodistribution in stomach of mouse B16F0 cells implanted C57BL/6J mouse assessed per gram of tissue at 0.4 to 5.5 MBq, iv after 3 hrs by gamma counter; format: ADME, organism-based; conditions: in vivo
# Intestine [6] = experiment: Biodistribution in intestine of mouse B16F0 cells implanted C57BL/6J mouse assessed per gram of tissue at 0.4 to 5.5 MBq, iv after 6 hrs by gamma counter; format: ADME, organism-based; conditions: in vivo
# Lung [7] = experiment: Biodistribution in lung of mouse B16F0 cells implanted C57BL/6J mouse assessed per gram of tissue at 0.4 to 5.5 MBq, iv after 6 hrs by gamma counter; format: ADME, organism-based; conditions: in vivo
# [8] = Biodistribution in eye of mouse B16F0 cells implanted C57BL/6J mouse assessed per gram of tissue at 0.4 to 5.5 MBq, iv after 3 hrs by gamma counter; format: ADME, organism-based; conditions: in vivo
# [9] = Biodistribution in tumor of mouse B16F0 cells implanted C57BL/6J mouse assessed per gram of tissue at 0.4 to 5.5 MBq, iv after 0.25 hrs by gamma counter; format: ADME, organism-based, Neoplasm; conditions: in vivo
# Intestine [10] = experiment: Biodistribution in intestine of mouse B16F0 cells implanted C57BL/6J mouse assessed per gram of tissue at 0.4 to 5.5 MBq, iv after 3 hrs by gamma counter; format: ADME, organism-based; conditions: in vivo
# Intestine [11] = experiment: Biodistribution in intestine of mouse B16F0 cells implanted C57BL/6J mouse assessed per gram of tissue at 0.4 to 5.5 MBq, iv after 1 hr by gamma counter; format: ADME, organism-based; conditions: in vivo
# Spleen [12] = experiment: Biodistribution in spleen of mouse B16F0 cells implanted C57BL/6J mouse assessed per gram of tissue at 0.4 to 5.5 MBq, iv after 6 hrs by gamma counter; format: ADME, organism-based; conditions: in vivo
# [13] = Biodistribution in eye of mouse B16F0 cells implanted C57BL/6J mouse assessed per gram of tissue at 0.4 to 5.5 MBq, iv after 6 hrs by gamma counter; format: ADME, organism-based; conditions: in vivo
# Spleen [14] = experiment: Biodistribution in spleen of mouse B16F0 cells implanted C57BL/6J mouse assessed per gram of tissue at 0.4 to 5.5 MBq, iv after 0.25 hrs by gamma counter; format: ADME, organism-based; conditions: in vivo
# Thyroid gland [15] = experiment: Biodistribution in thyroid of mouse B16F0 cells implanted C57BL/6J mouse assessed per gram of tissue at 0.4 to 5.5 MBq, iv after 3 hrs by gamma counter; format: ADME, organism-based; conditions: in vivo
# Stomach [16] = experiment: Biodistribution in stomach of mouse B16F0 cells implanted C57BL/6J mouse assessed per gram of tissue at 0.4 to 5.5 MBq, iv after 0.25 hrs by gamma counter; format: ADME, organism-based; conditions: in vivo
# Spleen [17] = experiment: Biodistribution in spleen of mouse B16F0 cells implanted C57BL/6J mouse assessed per gram of tissue at 0.4 to 5.5 MBq, iv after 3 hrs by gamma counter; format: ADME, organism-based; conditions: in vivo
# Intestine [18] = experiment: Biodistribution in intestine of mouse B16F0 cells implanted C57BL/6J mouse assessed per gram of tissue at 0.4 to 5.5 MBq, iv after 0.25 hrs by gamma counter; format: ADME, organism-based; conditions: in vivo
# Lung [19] = experiment: Biodistribution in lung of mouse B16F0 cells implanted C57BL/6J mouse assessed per gram of tissue at 0.4 to 5.5 MBq, iv after 0.25 hrs by gamma counter; format: ADME, organism-based; conditions: in vivo
# [20] = Biodistribution in tumor of mouse B16F0 cells implanted C57BL/6J mouse assessed per gram of tissue at 0.4 to 5.5 MBq, iv after 1 hr by gamma counter; format: ADME, organism-based, Neoplasm; conditions: in vivo
# [21] = Biodistribution in eye of mouse B16F0 cells implanted C57BL/6J mouse assessed per gram of tissue at 0.4 to 5.5 MBq, iv after 1 hr by gamma counter; format: ADME, organism-based; conditions: in vivo
# Stomach [22] = experiment: Biodistribution in stomach of mouse B16F0 cells implanted C57BL/6J mouse assessed per gram of tissue at 0.4 to 5.5 MBq, iv after 6 hrs by gamma counter; format: ADME, organism-based; conditions: in vivo
# Spleen [23] = experiment: Biodistribution in spleen of mouse B16F0 cells implanted C57BL/6J mouse assessed per gram of tissue at 0.4 to 5.5 MBq, iv after 1 hr by gamma counter; format: ADME, organism-based; conditions: in vivo
# Thyroid gland [24] = experiment: Biodistribution in thyroid of mouse B16F0 cells implanted C57BL/6J mouse assessed per gram of tissue at 0.4 to 5.5 MBq, iv after 0.25 hrs by gamma counter; format: ADME, organism-based; conditions: in vivo
# [25] = Biodistribution in tumor of mouse B16F0 cells implanted C57BL/6J mouse assessed per gram of tissue at 0.4 to 5.5 MBq, iv after 6 hrs by gamma counter; format: ADME, organism-based, Neoplasm; conditions: in vivo
# Thyroid gland [26] = experiment: Biodistribution in thyroid of mouse B16F0 cells implanted C57BL/6J mouse assessed per gram of tissue at 0.4 to 5.5 MBq, iv after 1 hr by gamma counter; format: ADME, organism-based; conditions: in vivo
# Bone [27] = experiment: Biodistribution in bone of mouse B16F0 cells implanted C57BL/6J mouse assessed per gram of tissue at 0.4 to 5.5 MBq, iv after 0.25 hrs by gamma counter; format: ADME, organism-based, Bone element; conditions: in vivo
# [28] = Biodistribution in eye of mouse B16F0 cells implanted C57BL/6J mouse assessed per gram of tissue at 0.4 to 5.5 MBq, iv after 0.25 hrs by gamma counter; format: ADME, organism-based; conditions: in vivo
# Lung [29] = experiment: Biodistribution in lung of mouse B16F0 cells implanted C57BL/6J mouse assessed per gram of tissue at 0.4 to 5.5 MBq, iv after 1 hr by gamma counter; format: ADME, organism-based; conditions: in vivo
# Thyroid gland [30] = experiment: Biodistribution in thyroid of mouse B16F0 cells implanted C57BL/6J mouse assessed per gram of tissue at 0.4 to 5.5 MBq, iv after 6 hrs by gamma counter; format: ADME, organism-based; conditions: in vivo
# Stomach [31] = experiment: Biodistribution in stomach of mouse B16F0 cells implanted C57BL/6J mouse assessed per gram of tissue at 0.4 to 5.5 MBq, iv after 1 hr by gamma counter; format: ADME, organism-based; conditions: in vivo
# Bone [32] = experiment: Biodistribution in bone of mouse B16F0 cells implanted C57BL/6J mouse assessed per gram of tissue at 0.4 to 5.5 MBq, iv after 3 hrs by gamma counter; format: ADME, organism-based, Bone element; conditions: in vivo
# [33] = Lipophilicity, log P at pH 7.5; format: physicochemical; conditions: buffer
Drug uptake (Bone [1]),Drug uptake (Bone [2]),Drug uptake (Lung [3]),Drug uptake [4],Drug uptake (Stomach [5]),Drug uptake (Intestine [6]),Drug uptake (Lung [7]),Drug uptake [8],Drug uptake [9],Drug uptake (Intestine [10]),Drug uptake (Intestine [11]),Drug uptake (Spleen [12]),Drug uptake [13],Drug uptake (Spleen [14]),Drug uptake (Thyroid gland [15]),Drug uptake (Stomach [16]),Drug uptake (Spleen [17]),Drug uptake (Intestine [18]),Drug uptake (Lung [19]),Drug uptake [20],Structure (SMILES),also measured
3.4%,5.6%,0.35%,17.3%,1.9%,3.6%,0.2%,36.3%,10.6%,7.1%,7.1%,0.5%,27.4%,11.8%,2.1%,14.7%,2.5%,7.8%,5%,14.6%,CCN(CC)CCNC(=O)c1cccnc1[18F],Drug uptake [21]: 38%; Drug uptake (Stomach [22]): 0.7%; Drug uptake (Spleen [23]): 9.2%; Drug uptake (Thyroid gland [24]): 4.5%; Drug uptake [25]: 4.8%; Drug uptake (Thyroid gland [26]): 2.2%; Drug uptake (Bone [27]): 4.8%; Drug uptake [28]: 36.7%; Drug uptake (Lung [29]): 1.5%; Drug uptake (Thyroid gland [30]): 3.2%; Drug uptake (Stomach [31]): 6.8%; Drug uptake (Bone [32]): 4.6%; logD [33]: 0.94
2%,1%,3.1%,5.3%,2.4%,3.1%,2.2%,14.3%,4%,4.2%,5.8%,4.1%,15.8%,11.2%,2.9%,8.5%,5.3%,8.2%,12.1%,4.8%,CCCCN(C)CCCCNC(=O)c1ccc([18F])nc1,Drug uptake [21]: 12.7%; Drug uptake (Stomach [22]): 1.8%; Drug uptake (Spleen [23]): 7.4%; Drug uptake (Thyroid gland [24]): 10.2%; Drug uptake [25]: 5.3%; Drug uptake (Thyroid gland [26]): 5.4%; Drug uptake (Bone [27]): 3.89%; Drug uptake [28]: 11.3%; Drug uptake (Lung [29]): 4.5%; Drug uptake (Thyroid gland [30]): 2%; Drug uptake (Stomach [31]): 3.3%; Drug uptake (Bone [32]): 1.4%; logD [33]: 1.52
